Data taken from patent US8263579B2, “Anti-inflammatory compounds” (Piramal Healthcare Limited, priority 2011, dated 2012).

Tests used:
TNF-α = experiment: High throughput screening in LPS stimulated THP-1 cells, TNF-α release by ELISA; type: cell-based
Method: (§1) The assay was designed on the basis of the reference, The Journal of Immunology, 1993, 151 (10), 5631-5638, the disclosure of which is incorporated by reference for the teaching of the assay.
(§2) THP-1 (ATCC, USA) cells were cultured in RPMI 1640 (Roswell Park Memorial Institute) culture medium (Gibco BRL, Pasley, UK) containing 100 U/ml penicillin, […] streptomycin (100× solution, Sigma Chemical Co. St Louis, Mo., USA) and 10% fetal bovine serum (Gibco BRL, Pasley, UK). The cells were differentiated into macrophages with phorbol myristate acetate (Sigma, USA) in 96 well culture plates. Following cell plating, various concentrations of the compound of formula I or the compound of formula II or vehicle (0.5% DMSO) were added to each well and the plate was incubated for 30 min at 37° C. Finally, per well, 20 μL of LPS (10 μg/mL stock solution) (Escherchia coli 0127:B8, Sigma Chemical Co., St. Louis, Mo.) was added for a final concentration of 1 μg/mL. Plates were incubated at 37° C. for 24 hours in an atmosphere of 5% CO2. Supernatants were harvested, and assayed for TNF-α and IL-6 by ELISA as described by the manufacturer (BD Biosciences). Percent inhibition of cytokine release compared to the control was calculated. The 50% inhibitory concentration (IC50) values were calculated by a nonlinear regression method.
(§3) Dexamethasone was used as standard.

IL-6 = experiment: High throughput screening in LPS stimulated THP-1 cells, IL-6 release by ELISA; type: cell-based
Method: as §1, §2, §3

[1] = Homo sapiens, LPS (1 μg/mL) stimulated THP-1 cells differentiated with PMA, 24 hours, ELISA
[2] = preparative HPLC fractions tested by method of Example 7
[3] = Homo sapiens, at 1 μg/ml, LPS stimulated THP-1 cells

IC50 (TNF-α; [1]) [µg/mL]	IC50 (IL-6; [1]) [µg/mL]	Compound	TNF-α inhibition of HPLC fractions (qualitative) (TNF-α; [2])	IL-6 inhibition of HPLC fractions (qualitative) (IL-6; [2])	inhibition at 1 µg/mL (TNF-α; [3]) [%]	inhibition at 1 µg/mL (IL-6; [3]) [%]
1.5	1.2	CCCCCCCCCCCCO/N=N/OC [Compound of formula II]	exhibited IL-6 and TNF-α inhibition	exhibited IL-6 and TNF-α inhibition	–	–
–	–	C[C@@H]1C[C@H]2[C@@H]3CCC4=CC(=O)C=C[C@]4(C)[C@@]3(F)[C@@H](O)C[C@]2(C)[C@@]1(O)C(=O)CO [Dexamethasone, reference compound]	–	–	73	84
